Data on seven compounds can be found in ChEMBL document CHEMBL4138222, “Cytotoxicity, molecular modeling, cell cycle arrest, and apoptotic induction induced by novel tetrahydro-[1,2,4]triazolo[3,4-a]isoquinoline chalcones” (Eur J Med Chem, 2018).

In one test the test system is HCT-116. The test is described as follows: Cytotoxicity against human HCT116 cells assessed as inhibition of cell proliferation after 48 hrs by MTT assay. Type of test: functional, cell-based. As to conditions: HCT-116, 48 h. For orientation: Tetrazolium dyes change colour on reduction, which living cells bring about.
Test [1] relates to MCF7. Description: Cytotoxicity against human MCF7 cells assessed as inhibition of cell proliferation after 48 hrs by MTT assay. The class given is functional, cell-based. Conditions: MCF7, 48 h.
The test system of another test is HepG2. The test is described as follows: Cytotoxicity against human HepG2 cells assessed as inhibition of cell proliferation after 48 hrs by MTT assay. Type of test: functional, cell-based. As to conditions: HepG2, 48 h.
For a further test, the system named is A549. The test is described as follows: Cytotoxicity against human A549 cells assessed as inhibition of cell proliferation after 48 hrs by MTT assay. Type of test: functional, cell-based. Conditions: A549, 48 h.
Test [2] can be described thus: Cytotoxicity against human HFB4 cells assessed as inhibition of cell proliferation after 48 hrs by MTT assay. Type of test: cell-based.
The test system of test [3] is MCF7. The test is described as follows: Induction of apoptosis in human MCF7 cells at 27.15 ug/ml after 48 hrs by propidium iodide staining-based flow cytometric method (reference value: 0.55%). The class given is functional. In general terms: Flow cytometry measures light scatter and fluorescence of single cells or particles in a stream.
Test [4] has as its system MCF7. Description: Induction of apoptosis in human MCF7 cells assessed as cell aggregates at 27.15 ug/ml after 48 hrs by propidium iodide staining-based flow cytometric method (reference value: 4.49%). The class given is functional.
For test [5], the system named is MCF7. Description: Upregulation of Bax mRNA expression in human MCF7 cells at IC50 after 48 hrs by RT-PCR method. Type of test: functional, cell-based.
Test [6] has as its system MCF7. Description: Upregulation of caspase-3 mRNA expression in human MCF7 cells at IC50 after 48 hrs by RT-PCR method. Type of test: functional, cell-based.
Test [7] relates to MCF7. Description: Cell cycle arrest in human MCF7 cells assessed as accumulation at G2/M phase at 27.15 ug/ml after 48 hrs by propidium iodide staining-based flow cytometric method (reference value: 4.82%). Type of test: functional.
The test system of test [8] is MCF7. Description: Cell cycle arrest in human MCF7 cells assessed as accumulation at S phase at 27.15 ug/ml after 48 hrs by propidium iodide staining-based flow cytometric method (reference value: 23.5%). Type of test: functional.
The subject of test [9] is MCF7. The test is described as follows: Downregulation of MMP1 mRNA expression in human MCF7 cells at IC50 after 48 hrs by RT-PCR method. The class given is functional, cell-based.
Test [10] relates to MCF7. Description: Induction of apoptosis in human MCF7 cells assessed as cell debris at 27.15 ug/ml after 48 hrs by propidium iodide staining-based flow cytometric method (reference value: 2.75%). The class given is functional.
Test [11] deals with MCF7. The test is described as follows: Induction of apoptosis in human MCF7 cells assessed as induction of caspase-3 activity by measuring caspase-3 levels at 27.15 ug/ml after 24 hrs ELISA (reference value: 0.0197 ng/ml). Type of test: functional. A general note: ELISA stands for enzyme-linked immunosorbent assay.
Test [12] has as its system MCF7. The test is described as follows: Upregulation of p53 mRNA expression in human MCF7 cells at IC50 after 48 hrs by RT-PCR method. The class given is functional, cell-based.
Test [13] relates to MCF7. The test is described as follows: Downregulation of CDK4 mRNA expression in human MCF7 cells at IC50 after 48 hrs by RT-PCR method. Type of test: functional, cell-based.
Test [14] has as its system MCF7. The test is described as follows: Cell cycle arrest in human MCF7 cells assessed as accumulation at G0/G1 phase at 27.15 ug/ml after 48 hrs by propidium iodide staining-based flow cytometric method (reference value: 71.13%). The class given is functional.
Test [15] relates to MCF7. Description: Downregulation of BCL-2 mRNA expression in human MCF7 cells at IC50 after 48 hrs by RT-PCR method. Type of test: functional, cell-based.
Test [16] deals with MCF7. The test is described as follows: Cell cycle arrest in human MCF7 cells assessed as accumulation at G2/M phase at 50.05 ug/ml after 48 hrs by propidium iodide staining-based flow cytometric method (reference value: 4.82%). Type of test: functional.
Test [17] relates to MCF7. The test is described as follows: Cell cycle arrest in human MCF7 cells assessed as accumulation at S phase at 50.05 ug/ml after 48 hrs by propidium iodide staining-based flow cytometric method (reference value: 23.5%). Type of test: functional.
The test system of test [18] is MCF7. Description: Induction of apoptosis in human MCF7 cells assessed as cell debris at 50.05 ug/ml after 48 hrs by propidium iodide staining-based flow cytometric method (reference value: 2.75%). Type of test: functional.
The subject of test [19] is MCF7. The test is described as follows: Induction of apoptosis in human MCF7 cells assessed as induction of caspase-3 activity by measuring caspase-3 levels at 50.05 ug/ml after 24 hrs ELISA (reference value: 0.0197 ng/ml). The class given is functional.
Test [20] has as its system MCF7. The test is described as follows: Induction of apoptosis in human MCF7 cells at 50.05 ug/ml after 48 hrs by propidium iodide staining-based flow cytometric method (reference value: 0.55%). The class given is functional.
The test system of test [21] is MCF7. Description: Induction of apoptosis in human MCF7 cells assessed as cell aggregates at 50.05 ug/ml after 48 hrs by propidium iodide staining-based flow cytometric method (reference value: 4.49%). Type of test: functional.
In test [22] the test system is MCF7. Description: Cell cycle arrest in human MCF7 cells assessed as accumulation at G0/G1 phase at 50.05 ug/ml after 48 hrs by propidium iodide staining-based flow cytometric method (reference value: 71.13%). The class given is functional.

≈ marks a conversion by molar mass, not a printed value. Calls of active or inactive are those of the source. The calls are words filed in the database; no cut-off is given here.

Consider `COc1cc2c(cc1OC)C1N(CC2)C(C(=O)/C=C/c2ccc(Cl)cc2)=NN1c1ccccc1` (stereo not drawn), for which the half-maximal inhibitory concentration (IC50) (commonly the midpoint of a concentration-inhibition curve) was 622 µg/mL (≈ 1310 µM) in the test with HCT-116; 151 µg/mL (≈ 319 µM) with MCF7 [1]; 141 µg/mL (≈ 297 µM) in the test with HepG2; 156 µg/mL (≈ 329 µM) with A549; 57.2 µg/mL (≈ 121 µM) in [2].

For `COc1cc2c(cc1OC)C1N(CC2)C(C(=O)/C=C/c2ccc3c(c2)OCO3)=NN1c1ccccc1` (stereo not drawn), the half-maximal inhibitory concentration (IC50) is 187 µg/mL (≈ 388 µM) in the test with HCT-116; 225 µg/mL (≈ 466 µM) with MCF7 [1]; 122 µg/mL (≈ 253 µM) in the test on HepG2; 201 µg/mL (≈ 417 µM) with A549; 51.9 µg/mL (≈ 107 µM) in test [2].

Turning to `COc1cc2c(cc1OC)C1N(CC2)C(C(=O)/C=C/c2cc(OC)c(OC)c(OC)c2)=NN1c1ccccc1` (stereo not drawn), the Activity in the test on MCF7 [3] was 17.28%; in the test on MCF7 [4], 7.92%; in the test with MCF7 [7] it was 0.6%; with MCF7 [8], 16.01%; in the test with MCF7 [10], 5.71%; in the test with MCF7 [11], 0.4108 ng/mL. Further, in the test with MCF7 [14], the Activity was determined as 66.11%. In addition, the outcome with MCF7 [5], in the test on MCF7 [6], with MCF7 [9], with MCF7 [12], in the test with MCF7 [13] and in the test with MCF7 [15] was Active. Moreover, the results for the half-maximal inhibitory concentration (IC50) in the test with MCF7 [1], in the test on HepG2 and in the test on A549 were 27.1 µg/mL (≈ 51.3 µM), 107 µg/mL (≈ 202 µM) and 156 µg/mL (≈ 295 µM), respectively.

`O=c1[nH]cc(F)c(=O)[nH]1` [FLUOROURACIL]: the IC50 worked out at 201 µg/mL (≈ 1550 µM) in the test with HCT-116, 178 µg/mL (≈ 1370 µM) in the test on MCF7 [1], 237 µg/mL (≈ 1820 µM) in the test with HepG2 and 66 µg/mL (≈ 507 µM) in the test on A549.

Regarding `COc1cc2c(cc1OC)C1N(CC2)C(C(=O)/C=C/c2ccc([N+](=O)[O-])cc2)=NN1c1ccccc1` (stereo not drawn), the Activity in the test with MCF7 [16] was 0%; with MCF7 [17] it was 17.06%; in the test on MCF7 [18], 3.88%; in the test on MCF7 [19], 0.3573 ng/mL; in the test on MCF7 [20] it was 8.72%; in the test with MCF7 [21], 4.85%. In addition, the Activity in the test with MCF7 [22] is 74.52%. Besides, the IC50 in the test on HCT-116 stood at 114 µg/mL (≈ 236 µM); in the test with MCF7 [1], 50 µg/mL (≈ 103 µM); in the test on HepG2, 478 µg/mL (≈ 986 µM); in the test on A549, 207 µg/mL (≈ 427 µM); in [2], 245 µg/mL (≈ 506 µM). The outcome in the test on MCF7 [5], in the test with MCF7 [6], in the test on MCF7 [9], in the test on MCF7 [12], with MCF7 [13] and in the test on MCF7 [15] was Active.

`COc1cc2c(cc1OC)C1N(CC2)C(C(=O)/C=C/c2ccccc2)=NN1c1ccccc1` (stereo not drawn): the IC50 in the test with HCT-116 was found to be 625 µg/mL (≈ 1420 µM); in the test on MCF7 [1], 61.4 µg/mL (≈ 140 µM); in the test with HepG2, 139 µg/mL (≈ 317 µM); in the test on A549 it was 78.1 µg/mL (≈ 178 µM); in test [2] it was 52.1 µg/mL (≈ 119 µM).

As to `COc1ccc(/C=C/C(=O)C2=NN(c3ccccc3)C3c4cc(OC)c(OC)cc4CCN23)cc1` (stereo not drawn), the IC50 in the test on HCT-116 was 243 µg/mL (≈ 518 µM); in the test with MCF7 [1], 68.5 µg/mL (≈ 146 µM); in the test with HepG2 it was 218 µg/mL (≈ 464 µM); in the test with A549, 190 µg/mL (≈ 404 µM); in [2], 115 µg/mL (≈ 245 µM).
